# Read-outs that look alike come from different tables or passages of the source.
# Key:
# Assay type in all cases: cell-based
# PCD12 cells [1] = tested on: PCD12 cells
# Protocol: Cells (PCD12 cells) were harvested and plated on a complete medium of collagen-coating tissue incubation dish in the density of 1.3×10^4 cells/cm^2. After 24 hours, NGF (0-50 ng/ml) and 100 μg/ml (the maximum concentration wherein toxicity against PCD12 cells is not observed) of vitamin K1 or vitamin K2 (n=4) were added to the cells.
# PCD12 cells [2] = test: Bioassay for neurite elongation (potentiation of NGF activity); details: for number of cells having neurites (morphological change): 100 μg/ml together with NGF (10 ng/ml) (FIG. 3); for effect of potentiating neurite elongation compared with the negative control group added with NGF 10 ng/ml: 100 μg/ml vitamin K, 48 hours incubation, ratio of cells having neurites (FIG. 1); for effect of potentiating neurite elongation in PCD12 cells: 100 μg/ml, in the presence of low dose of NGF (0-50 ng/ml) (FIG. 1)
# Protocol: Cells (PCD12 cells) were harvested and plated on a complete medium of collagen-coating tissue incubation dish in the density of 1.3×10^4 cells/cm^2. […] After 48 hours of incubation, the ratio of cells having neurites was examined using a phase-contrast microscope under ×200 magnification. […] Each measurement in the data is the mean value calculated from examining random 6 […] duplicate experiments, whereby at least 100 cells/point was counted for calculation.
# PCD12 cells [3] = test: Effect of each inhibitor on neurite elongation potentiated by vitamin K's; details: 10 μM PD98059 pretreatment, 48 hours incubation (FIG. 4)
# Protocol: In order to study the action mechanism of vitamin K's, influence of MAPK kinase inhibitor (PD98059), protein kinase A (PKA) inhibitor, and protein kinase C (PKC) inhibitor (chelerythrine chloride) on the effects for potentiating neurite elongation of vitamin K's in PCD12 cells were studied. Pre-incubation of cells was carried out for 1 hour in the presence or in the absence of the inhibitor before treatment of NGF or vitamin K compound. After 48 hours of incubation, the ratio of cells having neurites was examined.
Compound,maximum concentration wherein toxicity against PCD12 cells is not observed (PCD12 cells [1]),number of cells having neurites (morphological change) (PCD12 cells [2]),effect of potentiating neurite elongation compared with the negative control group added with NGF 10 ng/ml (PCD12 cells [2]),effect of potentiating neurite elongation in PCD12 cells (PCD12 cells [2]),maximum concentration wherein toxicity against PCD12 cells is not observed (PCD12 cells [1]; rat),inhibition of the potentiation of vitamin K's (PCD12 cells [3])
menaquinone [vitamin K2],100 µg/mL,remarkably increased,about 2.4 times,confirmed,,
"CC1=C(C/C=C(\C)CCC[C@H](C)CCC[C@H](C)CCCC(C)C)C(=O)c2ccccc2C1=O [vitamin K1, phylloquinone]",,remarkably increased,about 1.8 times,confirmed,100 µg/mL,
COc1cccc(-c2cc(=O)c3ccccc3o2)c1N [PD98059],,,,,,almost completely inhibited

# Reference: patent publication US20060058398A1, “Medicinal compositions containing vitamin k's as nerve growth factor potentiator and utilization thereof” (Hisamitsu Pharmaceutical Co., Inc., priority 2002, published 2006)
